Test results from patent US20260356826A1, “SALTS OF AMINO QUINAZOLINE DERIVATIVES” (CHIESI FARMACEUTICI S.P.A., priority 2023, published 2026).
Values after ≈ are worked out from the molar mass of the structure shown. “Also recorded” adds a separate entry of the source. Counter-ions that a name gives are not always drawn. Like-named read-outs stand apart in the source and are kept apart here.

Experiments:
Type in all cases: physicochemical
[1] = Formulations in 20% SBE-βCD with citrate buffer: appearance and pH
Description: The drug content and homogeneity of the mesylate salt Form 2 and the free base Form A of Compound A in 20% w/v SBE-PCD (Sulfobutyl-ether-β-Cyclodextrin, Captisol; CYDEX Pharmaceutical) were tested at different citrate buffer concentrations such as 0.05 M, 0.1 M, 0.5 M and 1 M, at pH 2.5. To prepare the vehicle, the proper amount of citric acid (Sigma Aldrich; CAS: 77-92-9) was dissolved in water in a volumetric flask, then the pH was increased up to 2.5 using 1M NaOH. Then water was added and brought to the final volume. SBE-PCD was weighed and added in a beaker containing the citrate buffer, then left under stirring until it was dissolved. The required volume of vehicle was added to a known amount of Compound A free base Form A or Mesylate salt Form 2, then sonicated at RT for at least 10 min. The formulation was kept under magnetic stirring for at least 10 min before analysis. The stability in terms of content uniformity and pH were evaluated for up to 8 days. The samples were kept at RT and the nominal concentration was 40 mg/ml.

[2] = Formulations with polymer: drug content and appearance; conditions: for Found conc.: nominal 40 mg/ml
Source text: The formulation having a 0.05 M citrate buffer concentration was chosen to be tested with the addition of polymers to investigate the effect due to a potential viscosity increase.
Different percentage of polymers were used, e.g. 5% w/v of polyvinylpyrrolidone (PVP) 40 or 1% w/v HPMC.
The formulations were studied with or without the use of the surfactant D-α-tocopherol polyethylene glycol succinate (Vit. E TPGS, Sigma Aldrich; CAS: 9002-96-4) in 0.05 M citrate buffer at pH 2.5 at the nominal concentration of 40 mg/ml. To prepare the vehicle the proper amount of citric acid was dissolved in water in a volumetric flask, then the pH was increased up to 2.5 using 0.1 M NaOH. Then water was added and brought to the final volume. The polymers PVP 40 (Sigma Aldrich; CAS: 9003-39-8) or HPMC (viscosity 46-60 cP; Sigma Aldrich; CAS: 9004-65-3) were gently dissolved in citrate buffer and left under magnetic stirring for at least 1 hour to their complete hydration. When required, Vit. E TPGS was subsequently added to the media and gently left under magnetic stirring to avoid bubbles formation.
The required volume of vehicle was added to a known amount of Compound A free base Form A or Mesylate salt Form 2, then sonicated at RT for at least 10 min. The formulation was kept under magnetic stirring for at least 10 min before analysis.

[3] = Dissolution in simulated oral fluids (FaSSGF, FaSSIF, FeSSIF), DISS Profiler, 37 °C, 24 hours; conditions: for Maximum solubility: 1440 min
Description: The dissolution of mesylate salt Form 2 of the compound A in comparison with the free base Form A of compound A was tested in all simulated oral fluids. The experiments were conducted with DISS Profiler 6 Channel Pion. The experiments were conducted until 24 hours at 37 °C.
The mediums used, namely FaSSGF (Fasted State Simulated Gastric Fluid), FaSSIF (Fasted State Simulated Intestinal Fluid) and FeSSIF (Fed State Simulated Intestinal Fluid) were obtained from Biorelevant.com Ltd. The medium compositions are listed in table 9. The saturated solution concentrations were about 14-15 mg/ml (as free base) in FaSSGF and about 3-4 mg/ml (as free base) in FaSSIF and FeSSIF.

[4] = Stability of mesylate salt Form 2 on storage (UPLC/UV/MS and XRPD), open and closed conditions; conditions: for Stability: one year; for XRPD pattern change: open and closed; for % area main peak: 0 days; for Stability (overall): regular and stressed storage conditions
Description: The samples were dissolved in solvent (water/ACN 40/60) at about 1 mg/mL and diluted at about 0.07 mg/mL.
Approximately 120 mg of mesylate salt Form 2 of Compound A according to Example 2 was stored in a properly labelled open amber glass vial covered with filter paper to simulate open conditions, and in a screw cap glass to simulate closed conditions. The samples were prepared such that a layer of powder was uniformly spread on the bottom of the vial. Approximately 70 mg of powder were weighed in hydroxypropyl methylcellulose (HPMC) capsules size 3 (Capsugel) and for each condition two capsules were stored. The samples were placed at RT in a desiccator with NaBr to reach about 60% RH and in a stability chamber to reach 75% RH at 40 °C. The stability of the mesylate salt Form 2 of Compound A was thereby tested in four distinct conditions: open condition at 25 °C/60% RH, closed condition at 25 °C/60% RH, open condition at 40 °C/75% RH, and closed condition at 40 °C/75% RH. At the time points 0, 14, 28, 56, 84, 168 and 365 days the corresponding samples were removed from the stability chambers. After conditioning at RT, the samples were analyzed by UPLC/UV/MS and XRPD. One or two extra samples were stored for every condition.

[5] = 20% SBE-βCD, citrate buffer 0.05 M, nominal 40 mg/ml
[6] = 20% SBE-βCD, citrate buffer 0.05 M, nominal 40 mg/ml, listed as Free base Form A
[7] = 20% SBE-βCD, citrate buffer 0.1 M, nominal 40 mg/ml
[8] = 20% SBE-βCD, citrate buffer 0.1 M, nominal 40 mg/ml, listed as Free base Form A
[9] = 20% SBE-βCD, citrate buffer 0.5 M, nominal 40 mg/ml
[10] = 20% SBE-βCD, citrate buffer 0.5 M, nominal 40 mg/ml, listed as Free base Form A
[11] = 20% SBE-βCD, citrate buffer 1 M, nominal 40 mg/ml
[12] = 1% w/v HPMC, 1% w/v Vit. E TPGS, 0.05 M citrate buffer pH 2.5
[13] = 5% w/v PVP, 1% w/v Vit. E TPGS, 0.05 M citrate buffer pH 2.5
[14] = 5% w/v PVP, 0.05 M citrate buffer pH 2.5

In the case of COc1cc(-c2ccc(F)cn2)cc2c(N[C@H](C)c3noc(C)n3)ncnc12 [free base Form A, (R)-6-(5-fluoropyridin-2-yl)-8-methoxy-N-(1-(5-methyl-1,2,4-oxadiazol-3-yl)ethyl)quinazolin-4-amine], the Appearance [1, 5] is reported as “suspension”, the Appearance [1, 6] is reported as “Fine suspension” and the pH of formulation [1, 6] is reported as 3.1. For the same molecule, the Appearance [1, 7] was “suspension”, the Appearance [1, 8] was “Suspension” and the pH of formulation [1, 8] was 3.5. The Appearance [1, 9] was “suspension”, the Appearance [1, 10] was “Thick suspension” and the pH of formulation [1, 10] was 3.2. For the same molecule, the Time of gelification ([1]; 20% SBE-βCD, citrate buffer 1 M) was 24 h, the Appearance [1, 11] was “Solution, gel after 24 hours” and the pH of formulation [1, 11] was 3.2. For the same molecule, the Time of gelification ([1]; 20% SBE-βCD, citrate buffer 1 M, listed as Free base Form A) was ≤ 24 h, the Appearance [2, 12] was “Suspension” and the Mean recovery [2, 12] was 104.9%. The Found conc. [2, 12] was 41.96 mg/mL, the Appearance [2, 13] was “Suspension” and the Mean recovery [2, 13] was 111.18%. For the same molecule, the Found conc. [2, 13] was 44.47 mg/mL, the Appearance [2, 14] was “Suspension” and the Mean recovery [2, 14] was 100.3%. For the same molecule, the Found conc. [2, 14] was 40.12 mg/mL, the Appearance ([2]; all formulations with polymer) was “suspensions” and the “pH at the end of the experiment” value ([3]; FaSSGF) was 3.1. For the same molecule, the “Time to decrease of solubility / duration of sustained solubility” value ([3]; FaSSGF, 37 °C) was “approximately 3 hours”, the Dissolution behaviour ([3]; FaSSGF, 37 °C, 24 hours) was “steady increase of solubility, but not complete solubilisation” and the “pH at the end of the experiment” value ([3]; FaSSIF) was 6.4. For the same molecule, the Maximum solubility ([3]; FaSSIF, 37 °C, 24 hours) was 0.04 mg/mL, the “pH at the end of the experiment” value ([3]; FeSSIF) was 5.1 and the solubility at 24 h ([3]; fassgf, 37 °C, 24 hours, read-out: Maximum solubility) was ~11000 µg/mL (≈ 28.9 mM). It also gave a solubility at 24 h ([3]; fessif, 37 °C, 24 hours, read-out: Maximum solubility) of 100 µg/mL (≈ 0.263 mM).

With COc1cc(-c2ccc(F)cn2)cc2c(N[C@H](C)c3noc(C)n3)ncnc12 [mesylate salt Form 2, (R)-6-(5-fluoropyridin-2-yl)-8-methoxy-N-(1-(5-methyl-1,2,4-oxadiazol-3-yl)ethyl)quinazolin-4-amine] the Appearance [1, 5] was “Solution”, the pH of formulation [1, 5] was 3.0 and the Appearance [1, 7] was “Solution”. For the same molecule, the pH of formulation [1, 7] was 3.0, the Appearance [1, 9] was “Solution” and the pH of formulation [1, 9] was 2.8. The Appearance [1, 11] was “Solution”, the pH of formulation [1, 11] was 2.8 and the “Formulability in solution compared to free base Form A” value ([1]; 20% SBE-βCD, citrate buffers) was “better formulability in solution”. The “Gelification during the test period” value ([1]; all citrate buffer concentrations, up to 8 days, RT) was “No gelification was observed”, the Appearance ([1]; all concentrations of citrate buffer) was “Stable solutions” and the Appearance [2, 12] was “Solution”. The Mean recovery [2, 12] was 111.10%, the Found conc. [2, 12] was 44.44 mg/mL and the Appearance [2, 13] was “Solution”. For the same molecule, the Mean recovery [2, 13] was 112.20%, the Found conc. [2, 13] was 44.87 mg/mL and the Appearance [2, 14] was “Solution”. The Mean recovery [2, 14] was 116.30%, the Found conc. [2, 14] was 46.51 mg/mL and the “Formulability in solution compared to free base Form A” value ([2]; with polymers, all excipients considered) was “better formulability in solution”. For the same molecule, the Stability ([4]; 25 °C/60% RH closed) was “remained stable throughout the entire test period”, the Stability ([4]; 25 °C/60% RH open) was “remained stable throughout the entire test period” and the XRPD pattern change ([4]; 25 °C/60% RH) was “no significant changes”. The Stability ([4]; 40 °C/75% RH closed) was “remained stable throughout the entire test period”, the Stability ([4]; 40 °C/75% RH open) was “remained stable throughout the entire test period” and the XRPD pattern change ([4]; 40 °C/75% RH) was “no significant changes”. For the same molecule, the “% area main peak” value ([4]; ES+, 25 °C/60% RH closed) was 91.6 % area, the “% area main peak” value ([4]; ES+, 25 °C/60% RH open) was 91.6 % area and the “% area main peak” value ([4]; ES+, 40 °C/75% RH closed) was 91.6 % area. For the same molecule, the “% area main peak” value ([4]; ES+, 40 °C/75% RH open) was 91.6 % area, the “% area main peak” value ([4]; ES−, 25 °C/60% RH closed) was 100.0 % area and the “% area main peak” value ([4]; ES−, 25 °C/60% RH open) was 100.0 % area. The “% area main peak” value ([4]; ES−, 40 °C/75% RH closed) was 100.0 % area, the “% area main peak” value ([4]; ES−, 40 °C/75% RH open) was 100.0 % area and the “% area main peak” value ([4]; UV, 25 °C/60% RH closed) was 98.4 % area. For the same molecule, the “% area main peak” value ([4]; UV, 25 °C/60% RH open) was 98.4 % area, the “% area main peak” value ([4]; UV, 40 °C/75% RH closed) was 98.4 % area and the “% area main peak” value ([4]; UV, 40 °C/75% RH open) was 98.4 % area. The “Stability (overall)” value [4] was “excellent stability for at least one year at RT; also recorded: remains stable in dry form for at least one year at different conditions”, the “Stability (overall)” value ([4]; listed as mesylate salt) was “stable for several months” and the “pH at the end of the experiment” value ([3]; FaSSGF) was 1.8. The “Time to decrease of solubility / duration of sustained solubility” value ([3]; FaSSGF, 37 °C) was “at least 24 hours”, the Dissolution behaviour ([3]; FaSSGF, 37 °C, 24 hours) was “complete solubilisation was achieved; also recorded: no decrease in the solubility during the 24 hours” and the Maximum solubility ([3]; FaSSGF, 37 °C, 24 hours) was 14.00 mg/mL. For the same molecule, the “pH at the end of the experiment” value ([3]; FaSSIF) was 6.1, the Maximum solubility ([3]; FaSSIF, 37 °C, 24 hours) was 0.10 mg/mL and the “pH at the end of the experiment” value ([3]; FeSSIF) was 5.0. It also gave a Maximum solubility ([3]; FeSSIF, 37 °C, 24 hours) of 0.07 mg/mL, a solubility at 24 h ([3]; fassif, read-out: Solubility by UPLC/UV/MS at the end of the experiment) of 30 µg/mL and a solubility at 24 h ([3]; fessif, read-out: Solubility by UPLC/UV/MS at the end of the experiment) of 170 µg/mL.
